In the supplement of paper PMC11451515:

Test system: P12-Ichikawa
Experiment: cell viability relative to DMSO control; higher = less cytotoxic
Conditions: 48 h
Outline: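 Viability, reported as a per-plate percentage of DMSO wells with cell-free wells as background, came from CellTiter-Glo One luminescence. Reading took place after 48 h at 37°C. Before that, NOMO1 or SEM (500 cells/well) or P12-Ichikawa (1000 cells/well) leukemia cells, adapted for at least four passages in each medium, were seeded in 1536-well plates (5 μl) and pin-dosed with library compounds in DMSO, 47 μM to 0.79 nM over 11 threefold points.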

[1] = HPLM + 10% dialyzed FBS, 0.000781 µM
[2] = HPLM + 10% dialyzed FBS, 0.00234 µM
[3] = HPLM + 10% dialyzed FBS, 0.00702 µM
[4] = HPLM + 10% dialyzed FBS, 0.0211 µM
[5] = HPLM + 10% dialyzed FBS, 0.0632 µM
[6] = HPLM + 10% dialyzed FBS, 0.19 µM
[7] = HPLM + 10% dialyzed FBS, 0.569 µM
[8] = HPLM + 10% dialyzed FBS, 1.71 µM
[9] = HPLM + 10% dialyzed FBS, 5.12 µM
[10] = HPLM + 10% dialyzed FBS, 15.4 µM
[11] = HPLM + 10% dialyzed FBS, 46.1 µM
[12] = RPMI 5 mM glucose + 10% FBS, 0.000781 µM
[13] = RPMI 5 mM glucose + 10% FBS, 0.00234 µM
[14] = RPMI 5 mM glucose + 10% FBS, 0.00702 µM
[15] = RPMI 5 mM glucose + 10% FBS, 0.0211 µM
[16] = RPMI 5 mM glucose + 10% FBS, 0.0632 µM
[17] = RPMI 5 mM glucose + 10% FBS, 0.19 µM
[18] = RPMI 5 mM glucose + 10% FBS, 0.569 µM
[19] = RPMI 5 mM glucose + 10% FBS, 1.71 µM
[20] = RPMI 5 mM glucose + 10% FBS, 5.12 µM
[21] = RPMI 5 mM glucose + 10% FBS, 15.4 µM
[22] = RPMI 5 mM glucose + 10% FBS, 46.1 µM
[23] = RPMI 5 mM glucose + 10% dialyzed FBS, 0.000781 µM
[24] = RPMI 5 mM glucose + 10% dialyzed FBS, 0.00234 µM
[25] = RPMI 5 mM glucose + 10% dialyzed FBS, 0.00702 µM
[26] = RPMI 5 mM glucose + 10% dialyzed FBS, 0.0211 µM
[27] = RPMI 5 mM glucose + 10% dialyzed FBS, 0.0632 µM
[28] = RPMI 5 mM glucose + 10% dialyzed FBS, 0.19 µM
[29] = RPMI 5 mM glucose + 10% dialyzed FBS, 0.569 µM
[30] = RPMI 5 mM glucose + 10% dialyzed FBS, 1.71 µM
[31] = RPMI 5 mM glucose + 10% dialyzed FBS, 5.12 µM
[32] = RPMI 5 mM glucose + 10% dialyzed FBS, 15.4 µM
[33] = RPMI 5 mM glucose + 10% dialyzed FBS, 46.1 µM

With CC(C)(C)[C@]1(O)C[C@@H]2OC(=O)C[C@@]23C(=O)O[C@@H]2OC(=O)[C@H](O)C213 (some centres not stated) the cell viability [1] was 121%, the cell viability [2] was 127% and the cell viability [3] was 121%. For the same compound, the cell viability [4] was 126%, the cell viability [5] was 118% and the cell viability [6] was 112%. The cell viability [7] was 118%, the cell viability [8] was 108% and the cell viability [9] was 109%. For the same compound, the cell viability [10] was 114%, the cell viability [11] was 106% and the cell viability [12] was 128%. For the same compound, the cell viability [13] was 121%, the cell viability [14] was 113% and the cell viability [15] was 136%. The cell viability [16] was 118%, the cell viability [17] was 122% and the cell viability [18] was 118%. For the same compound, the cell viability [19] was 105%, the cell viability [20] was 116% and the cell viability [21] was 108%. For the same compound, the cell viability [22] was 113%, the cell viability [23] was 120% and the cell viability [24] was 129%. It also gave a cell viability [25] of 124%, a cell viability [26] of 130% and a cell viability [27] of 119%. It also gave a cell viability [28] of 116%, a cell viability [29] of 119% and a cell viability [30] of 105%. For the same compound, the cell viability [31] was 118%, the cell viability [32] was 116% and the cell viability [33] was 112%.

Nc1cc(N2CCCCC2)nc(N)[n+]1[O-] showed a cell viability [1] of 114%, a cell viability [2] of 125% and a cell viability [3] of 122%. It also gave a cell viability [4] of 118%, a cell viability [5] of 120% and a cell viability [6] of 127%. The cell viability [7] was 131%, the cell viability [8] was 125% and the cell viability [9] was 122%. The cell viability [10] was 119%, the cell viability [11] was 122% and the cell viability [12] was 125%. It also gave a cell viability [13] of 128%, a cell viability [14] of 121% and a cell viability [15] of 134%. It also gave a cell viability [16] of 127%, a cell viability [17] of 123% and a cell viability [18] of 131%. The cell viability [19] was 127%, the cell viability [20] was 131% and the cell viability [21] was 134%. The cell viability [22] was 127%, the cell viability [23] was 113% and the cell viability [24] was 124%. It also gave a cell viability [25] of 111%, a cell viability [26] of 125% and a cell viability [27] of 121%. For the same compound, the cell viability [28] was 114%, the cell viability [29] was 125% and the cell viability [30] was 129%. For the same compound, the cell viability [31] was 121%, the cell viability [32] was 113% and the cell viability [33] was 117%.

For CC(C)[C@H](C(=O)Nc1ccc(C(=O)NO)cc1)c1ccccc1, the cell viability [1] was 117%, the cell viability [2] was 120% and the cell viability [3] was 121%. It also gave a cell viability [4] of 129%, a cell viability [5] of 125% and a cell viability [6] of 125%. For the same compound, the cell viability [7] was 118%, the cell viability [8] was 87.9% and the cell viability [9] was 7.68%. The cell viability [10] was 5.55% and the cell viability [11] was 6.05%.
